Results on one compound are retold here after patent US20260102407A1, “TREATMENT METHODS” (priority 2020, published 2026).

For one assay, the system named is FosB/ΔFosB. In words: Western blot, IL-1β-inducible FosB/ΔFosB expression in HMEC-1. The following applies: 30 μM, 20 ng/ml IL-1β up to 4 h. Type of assay: cell-based, human. The method, then:
Western blot analysis with extracts of cells treated with IL-13. HMEC-1 (80-90% confluency) were arrested in serum-free MCDB131 medium (Invitrogen, MD) without any growth factor for 48 h. Cells were treated with 30 μM compound in serum-free medium for 4 h, and incubated with 20 ng/ml IL-1β (Sigma, cat. SRE3083) in serum-free medium with the same concentration of compound for up to 4 h, unless otherwise indicated. Total protein was harvested as previously described using RIPA buffer with protease inhibitors. Proteins were resolved on 4-20% (w/v) SDS-polyacrylamide gradient gels and transferred to Immobilon-P PVDF membranes. […] Chemiluminescence was detected using the Western Lightning Chemiluminescence system and ImageQuant™ LAS 4000 biomolecular imager. Band intensity in images generated with the LAS 4000 using the same settings were quantified by NIH ImageJ.
On the technique in general: In western blotting, separated proteins are transferred to a membrane and probed.

Another assay relates to VEGF-A165. In words: Immunohistochemical staining of rat retina, VEGF-A165. Type of assay: in vivo. An excerpt:
Rat choroidal laser injury model. Male Brown Norway pigmented rats (8-14 week-old) were anesthetized by an intramuscular injection of Rompun® (xylazine)/Imalgene® (ketamine). Pupils were dilated by instillation of one drop of 0.5% tropicamide before laser burn. Six burns were created in both eyes on Day 0 by applying 170 mW of 532 nm laser light (Viridis laser, Quantel, France) on 75 μm spots around the optic nerve, between the main retinal vessel branches, for 0.1s, through the slit lamp and contact lens. Production of a bubble at the time of laser application confirmed the rupture of Bruch's membrane. […] After anaesthesia, 10% sodium fluorescein (250 μl/100 g body weight) was injected subcutaneously, and ocular fluorescence was recorded 10 min after dye injection. Fluorescein leakage was evaluated on Days 14 and 21 in the angiograms by two examiners masked to the study groups and graded for fluorescein intensity as follows: score 0: no leakage; 1: slightly stained; 2: moderately stained; 3: strongly stained.
Immunohistochemical staining of rat retina. […] IOD of positive staining (red chromogen) was assessed for CD31, VEGF-A165, pERK, FosB and VCAM-1 using Image-Pro Plus software (Cybernetics, Bethesda, MD). IOD in IPL and INL was quantified for CD31; OPL to OS for VEGF-A165; INL to ONL for pERK; GCL to OS for FosB; OLM for VCAM-1, using Image-Pro Plus. […]

Regarding `CCOC(=O)Nc1ccc2c(c1)C(=O)N(CC)c1ccccc1O2` [BT2, (10-ethyl-11-oxo-10,11-dihydro-dibenzo[b,f][1,4]oxazepin-2-yl)-carbamic acid ethyl ester], in the assay on FosB/ΔFosB, the “IL-1β-inducible FosB/ΔFosB expression (Western blot)” value is on record as “inhibited”. The “inducible expression of VEGF-A165 in retina” value with VEGF-A165 (lasered rat eyes 21 days after injury) was “inhibited the inducible expression of VEGF-A165”. In the assay with VEGF-A165 (lasered rat eyes, 100 μm boxed increments), the “VEGF-A165 staining gradient relative to the wound” value was “inhibited by BT2”.
